The nature of data set [1]: Body weight monitoring and daily observation in the NCI-H1975-HGF xenograft model. The format is in vivo. The protocol:
4) After inoculation, the tumor volume and weight were measured twice a week. When the average tumor volume reached about 100 mm^3, the animals were randomly divided into 4 groups according to the tumor volume and weight, each group having 3 animals. The animals were immediately administered after grouping. The day of administration was regarded as day 0. Table 3. Grouping and administration information
After inoculation, the disease attack and death of animals were observed every working day. Daily observation includes tumor growth and the effects of drugs on test animals, such as changes in activity, changes in food and water intake, weight loss, appearance changes in hair and eyes, death and other clinical symptoms.
After inoculation and before grouping, the weight of test animals was measured once a week. After grouping, the weight of the test animals was measured twice a week.

A short description of data set [2]: Body weight change and tolerance of tumor-bearing mice in the LD1-0025-200662 PDX model. The format is in vivo. Particulars: for Rate of weight change (%) Day 21: Day 21 vs Day 0. The protocol: Immunodeficient mice were subcutaneously inoculated with LD1-0025-200662 tumor tissue, and observed continuously till tumor formation. When the tumor volume reached about 1000 mm^3, the tumor tissue was peeled off and cut into tumor tissue with a size of about 3 mm × 3 mm × 3 mm (about 50-90 mg), and inoculated subcutaneously in NU/NU mice. The inoculated mice were observed and the growth of tumor was monitored. When the average tumor volume of tumor-bearing mice reached 193.40 mm^3, the mice were randomly divided into groups, administered and observed. The tumor volume and weight of all tumor-bearing mice were measured before grouping, and the tumor-bearing mice were randomly grouped according to the measured tumor volume. According to the principle of random block design, the mice were first divided into blocks according to the tumor volume, and then the mice in each block were randomly assigned to each treatment group. Table 9. Administration and treatment
During the whole experiment, the use and observation of test animals were carried out in accordance with the relevant regulations of Guide for the Care and Use of Laboratory Animals of AAALAC. After the test animals were inoculated with the tumor tissue, they were observed every day and the disease attack and death were recorded. During the routine experiment, all the test animals were monitored and recorded for behavior, food intake, water intake, weight change, hair luster and other abnormal conditions.
5.6 The weight of tumor-bearing mice was measured twice a week, and the change rate of weight gain of mice after administration was calculated: RCBW(%) = (BWi - BW0) / BW0 × 100, where BWi was the average weight at a certain measurement after administration, and BW0 was the average weight at the first administration.

Where [3] appears, read: ASK-EGFR 20 mg/kg p.o. QD×21 (G2).
The mark [4] stands for this setting: ASK-MET 1 mg/kg p.o. QD×(D0-D7) (G3).
The mark [5] stands for this setting: ASK-MET 3 mg/kg p.o. QD×(D0-D7) (G4).

Regarding `C=CC(=O)Nc1cc(Nc2ncc(Cl)c(Nc3ccc4ccccc4c3)n2)c(OC)cc1N(C)CCN(C)C` [ASK-EGFR, N-((5-((5-chloro-4-((naphthalen-2-yl)amino))pyrimidin-2-yl)amino)-2-((N-methyl-N-dimethylaminoethyl)amino)-4-methoxyphenyl) acrylamide], the “Weight” value in data set [1] (Day 0, ASK-EGFR 20 mg/kg p.o. QD×15 (G4)) amounted to 22.0 ± 0.1 g; in data set [1] (Day 2, ASK-EGFR 20 mg/kg p.o. QD×15 (G4)) it was 21.9 ± 0.2 g; in data set [1] (Day 5, ASK-EGFR 20 mg/kg p.o. QD×15 (G4)), 22.1 ± 0.1 g; in data set [1] (Day 8, ASK-EGFR 20 mg/kg p.o. QD×15 (G4)), 21.1 ± 0.3 g; in data set [1] (Day 12, ASK-EGFR 20 mg/kg p.o. QD×15 (G4)), 21.5 ± 0.6 g; in data set [1] (Day 15, ASK-EGFR 20 mg/kg p.o. QD×15 (G4)), 21.0 ± 0.5 g. In data set [2] (setting [3]), the “Average weight (g) (Mean ± SEM) Day 0” value came to 23.24 ± 0.47 g. For the same molecule, the “Average weight (g) (Mean ± SEM) Day 21” value in data set [2] (setting [3]) stood at 24.75 ± 0.64 g. Besides, the “Rate of weight change (%) Day 21” value in data set [2] (setting [3]) came to 6.45±1.28%.
`CC(C)(O)CN1CCC(COc2cnc(-c3cccc(Cn4c(=O)ccn5c6cc(C#N)ccc6nc45)c3)nc2)CC1` [ASK-MET]: the “Weight” value in data set [1] (Day 0, ASK-MET 2 mg/kg p.o. QD×15 (G2)) was 20.3 ± 1.0 g; in data set [1] (Day 2, ASK-MET 2 mg/kg p.o. QD×15 (G2)), 20.3 ± 1.3 g; in data set [1] (Day 5, ASK-MET 2 mg/kg p.o. QD×15 (G2)), 20.5 ± 1.0 g; in data set [1] (Day 8, ASK-MET 2 mg/kg p.o. QD×15 (G2)), 20.8 ± 0.3 g; in data set [1] (Day 12, ASK-MET 2 mg/kg p.o. QD×15 (G2)) it was 20.8 ± 0.4 g; in data set [1] (Day 15, ASK-MET 2 mg/kg p.o. QD×15 (G2)), 20.5 ± 0.4 g. Moreover, the “Average weight (g) (Mean ± SEM) Day 0” value in data set [2] (setting [4]) was found to be 24.08 ± 0.53 g; in data set [2] (setting [5]) it was 24.02 ± 0.37 g. Besides, the results for the “Average weight (g) (Mean ± SEM) Day 21” value in data set [2] (setting [4]) and in data set [2] (setting [5]) were 25.24 ± 0.50 g and 25.03 ± 0.45 g, respectively. For the same molecule, the “Rate of weight change (%) Day 21” value in data set [2] (setting [4]) came out at 4.88±0.71%; in data set [2] (setting [5]) it was 4.19±1.08%.

(Values after patent EP4740947A1, “PHARMACEUTICAL COMBINATION OF EGFR KINASE INHIBITOR AND C-MET KINASE INHIBITOR FOR TREATING TUMOR DISEASES” (Jiangsu AoSaiKang Pharmaceutical Co., Ltd., priority 2023, dated 2025).)
